{"source": "patent US7608577B2", "about": "“Peptidyl ketones as inhibitors of DPIV” (OSI Pharmaceuticals, Inc., priority 2001, dated 2009)", "key": {"[1]": {"target": "T1, Angiotensin-I converting enzyme (ACE) (Oryctolagus cuniculus, UniProt P12822)", "T1 construct": "purchased Sigma A-6778", "T1 sequence (P12822 34-1310)": "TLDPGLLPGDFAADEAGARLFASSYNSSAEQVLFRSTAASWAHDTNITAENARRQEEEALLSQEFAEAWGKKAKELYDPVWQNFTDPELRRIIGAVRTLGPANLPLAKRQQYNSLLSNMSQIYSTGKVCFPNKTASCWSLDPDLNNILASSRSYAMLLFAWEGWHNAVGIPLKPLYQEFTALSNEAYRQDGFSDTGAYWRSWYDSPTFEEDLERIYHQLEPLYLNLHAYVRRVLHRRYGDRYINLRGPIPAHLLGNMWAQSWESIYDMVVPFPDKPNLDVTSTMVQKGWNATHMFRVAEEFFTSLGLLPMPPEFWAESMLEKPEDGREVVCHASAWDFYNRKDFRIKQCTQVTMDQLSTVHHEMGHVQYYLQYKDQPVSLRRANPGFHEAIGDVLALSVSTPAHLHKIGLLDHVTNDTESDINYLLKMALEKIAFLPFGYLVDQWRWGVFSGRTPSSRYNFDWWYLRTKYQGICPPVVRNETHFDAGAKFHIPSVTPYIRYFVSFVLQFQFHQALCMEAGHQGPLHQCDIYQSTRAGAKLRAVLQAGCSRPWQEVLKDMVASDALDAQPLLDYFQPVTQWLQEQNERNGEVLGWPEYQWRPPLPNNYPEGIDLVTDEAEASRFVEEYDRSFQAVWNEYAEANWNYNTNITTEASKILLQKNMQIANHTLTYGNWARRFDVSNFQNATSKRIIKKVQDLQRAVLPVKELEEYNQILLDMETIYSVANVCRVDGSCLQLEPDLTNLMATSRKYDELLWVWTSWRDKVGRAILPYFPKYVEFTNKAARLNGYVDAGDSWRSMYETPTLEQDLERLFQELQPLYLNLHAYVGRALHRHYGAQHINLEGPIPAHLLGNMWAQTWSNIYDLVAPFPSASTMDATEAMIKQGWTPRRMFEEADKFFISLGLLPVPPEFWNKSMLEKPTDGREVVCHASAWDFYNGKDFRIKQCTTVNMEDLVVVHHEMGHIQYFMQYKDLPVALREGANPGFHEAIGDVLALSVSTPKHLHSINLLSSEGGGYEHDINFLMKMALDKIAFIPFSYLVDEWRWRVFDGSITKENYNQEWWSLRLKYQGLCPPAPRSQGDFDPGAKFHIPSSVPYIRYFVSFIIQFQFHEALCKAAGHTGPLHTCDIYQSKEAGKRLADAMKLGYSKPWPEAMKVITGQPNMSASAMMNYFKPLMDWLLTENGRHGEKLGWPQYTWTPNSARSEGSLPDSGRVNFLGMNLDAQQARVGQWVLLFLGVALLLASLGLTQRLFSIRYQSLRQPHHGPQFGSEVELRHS", "experiment": "Cross reacting enzymes: ACE", "assay_type": "biochemical", "settings": "Sigma enzyme A-6778", "description": "For IC50 determination of ACE an enzyme produced by Sigma was used (Prod. No. A-6778). The assay procedure and calculation of activity described by the manufacturer was adapted to half of the described volumes.\nThe IC50-values were calculated using Graphit 4.0.15 (Erithacus Software, Ltd., UK)."}, "diabetic Zucker rats": {"test_system": "diabetic Zucker rats", "experiment": "Glucose tolerance (OGTT) in diabetic Zucker rats", "assay_type": "in vivo, Zucker rats (fa/fa)", "settings": "for Improvement: vs AUC control", "description": "N=30 male Zucker rats (fa/fa), mean age 11 weeks (5-12 weeks), mean body weight 350 g (150-400 g), were purchased from Charles River (Sulzfeld, Germany). They were kept for >12 weeks until all the fatty Zucker rats had the characteristics of manifest Diabetes mellitus.\nAnimals were kept single-housed under conventional conditions with controlled temperature (22±2° C.) on a 12/12 hours light/dark cycle (light on at 06:00 a.m.). Standard pellets (ssniff®, Soest, Germany) and tap water acidified with HCl were allowed ad libitum.\nFatty Zucker rats, 17-24 weeks old, adapted to the housing conditions, were well prepared for the tests. Catheters were implanted into the carotid artery of fatty Zucker rats under general anaesthesia (i.p. injection of 0.25 ml/kg b.w. Rompun® [2%], BayerVital, Germany and 0.5 ml/kg b.w. Ketamin 10, Atarost GmbH & Co., Twistringen, Germany). The animals were allowed to recover for one week. The catheters were flushed with heparin-saline (100 IU/ml) three times per week. In case of catheter dysfunction, a second catheter was inserted into the contra-lateral carotid artery of the respective rat. After one week of recovery from surgery, this animal was reintegrated into the study. In case of dysfunction of the second catheter, the animal was withdrawn from the study. A new animal was recruited and the experiments were continued in the planned sequence, beginning at least 7 days after catheter implantation.\nFatty Zucker rats with intact catheter function were given in random order placebo (1 ml saline, 0.154 mol/l; N=9 animals as control), or test substance, solved in 1 ml saline (N=6 animals in each test group).\nAfter overnight fasting, the fatty Zucker rats were given placebo and test substance, respectively, via feeding tube orally (15 G, 75 mm; Fine Science Tools, Heidelberg, Germany) at −10 min. An oral glucose tolerance test (OGTT) with 2 g/kg b.w. glucose as a 40% solution (B. Braun Melsungen, Melsungen, Germany) was implemented at ±0 min. The glucose was administered via a second feeding tube. Arterial blood samples from the carotid catheter were collected at −30 min, −15 min, ±0 min and at 5, 10, 15, 20, 30, 40, 60, 90 and 120 min into 20 μl glass capillaries, which were placed in standard tubes filled with 1 ml solution for hemolysis (blood glucose measurement). […]\nBlood glucose: Glucose levels were measured using the glucose oxidase procedure (Super G Glukosemeβgerät; Dr. Müller Gerätebau, Freital, Germany)."}}}
{"smiles": "Br.CC(=O)OCC(=O)[C@@H]1CCCN1C(=O)[C@@H](NC(=O)[C@H](C)N)C(C)C", "note": "[H-Ala-Val-Pro-CH2O—CO—CH3*HBr, 2-[(Acetyloxy-methyl)carbonyl]-1-N-[(L)-Alanyl-(L)-Valinyl]-(2S)-pyrrolidine hydrobromide]", "values": [{"measurement": "ACE IC50", "setting": "[1]", "result": "no inhibition"}, {"measurement": "AUC test compound", "setting": "diabetic Zucker rats; OGTT, 5 mg/kg b.w. oral", "result": 309.1, "unit": "mmol·min/L"}, {"measurement": "Improvement", "setting": "diabetic Zucker rats; OGTT, 5 mg/kg b.w. oral", "result": 44.9, "unit": "%"}, {"measurement": "AUC test compound", "setting": "diabetic Zucker rats; OGTT, 15 mg/kg b.w. oral", "result": 300.9, "unit": "mmol·min/L"}, {"measurement": "Improvement", "setting": "diabetic Zucker rats; OGTT, 15 mg/kg b.w. oral", "result": 46.4, "unit": "%"}, {"measurement": "AUC test compound", "setting": "diabetic Zucker rats; OGTT, 50 mg/kg b.w. oral", "result": 254.7, "unit": "mmol·min/L"}, {"measurement": "Improvement", "setting": "diabetic Zucker rats; OGTT, 50 mg/kg b.w. oral", "result": 54.6, "unit": "%"}]}
{"smiles": "Br.CC(C)[C@H](NC(=O)[C@H](C)N)C(=O)N1CCC[C@H]1C(=O)COC(=O)c1ccccc1", "note": "[H-Ala-Val-Pro-CO—CH2O—CO—Ph*HBr, 2-[(Benzoyloxy-methyl)carbonyl]-1-N-[{(L)-Alanyl}-(L)-Valinyl]-(2S)-pyrrolidine hydrobromide]", "values": [{"measurement": "ACE IC50", "setting": "[1]", "result": "no inhibition"}, {"measurement": "AUC test compound", "setting": "diabetic Zucker rats; OGTT, 5 mg/kg b.w. oral", "result": 209.1, "unit": "mmol·min/L"}, {"measurement": "Improvement", "setting": "diabetic Zucker rats; OGTT, 5 mg/kg b.w. oral", "result": 59.5, "unit": "%"}, {"measurement": "AUC test compound", "setting": "diabetic Zucker rats; OGTT, 15 mg/kg b.w. oral", "result": 245.4, "unit": "mmol·min/L"}, {"measurement": "Improvement", "setting": "diabetic Zucker rats; OGTT, 15 mg/kg b.w. oral", "result": 52.6, "unit": "%"}, {"measurement": "AUC test compound", "setting": "diabetic Zucker rats; OGTT, 50 mg/kg b.w. oral", "result": 160.5, "unit": "mmol·min/L"}, {"measurement": "Improvement", "setting": "diabetic Zucker rats; OGTT, 50 mg/kg b.w. oral", "result": 69.0, "unit": "%"}]}
{"smiles": "Br.CC(=O)[C@@H]1CCCN1C(=O)[C@@H](NC(=O)[C@H](C)N)C(C)C", "note": "[H-Ala-Val-Pro-Me*HBr, 2-Methylcarbonyl-1-N-[(L)-Alanyl-(L)-Valinyl]-(2S)-pyrrolidine hydrobromide]", "values": [{"measurement": "ACE IC50", "setting": "[1]", "result": "no inhibition"}, {"measurement": "AUC test compound", "setting": "diabetic Zucker rats; OGTT 2 g/kg glucose, 100 mg/kg b.w. oral", "result": 394.4, "unit": "mmol·min/L"}, {"measurement": "Improvement", "setting": "diabetic Zucker rats; OGTT, 100 mg/kg b.w. oral", "result": 48.5, "unit": "%"}]}
